# Measured values published in US7786141B2 (Vertex Pharmaceuticals Incorporated, priority 2004, dated 2010).
# Legend:
# M4 muscarinic receptor = target: T1, M4 muscarinic receptor (Homo sapiens, UniProt P08173); assay: Functional mobilization of intracellular calcium (FLIPR) in M4-CHO cells; format: cell-based; conditions: M4 receptor, calcium mobilization; for Emax: read-out: M4 Efficacy
# T1 construct: expressed in transfected cells; host or cells: CHO (M4-CHO)
# T1 sequence (P08173 1-479): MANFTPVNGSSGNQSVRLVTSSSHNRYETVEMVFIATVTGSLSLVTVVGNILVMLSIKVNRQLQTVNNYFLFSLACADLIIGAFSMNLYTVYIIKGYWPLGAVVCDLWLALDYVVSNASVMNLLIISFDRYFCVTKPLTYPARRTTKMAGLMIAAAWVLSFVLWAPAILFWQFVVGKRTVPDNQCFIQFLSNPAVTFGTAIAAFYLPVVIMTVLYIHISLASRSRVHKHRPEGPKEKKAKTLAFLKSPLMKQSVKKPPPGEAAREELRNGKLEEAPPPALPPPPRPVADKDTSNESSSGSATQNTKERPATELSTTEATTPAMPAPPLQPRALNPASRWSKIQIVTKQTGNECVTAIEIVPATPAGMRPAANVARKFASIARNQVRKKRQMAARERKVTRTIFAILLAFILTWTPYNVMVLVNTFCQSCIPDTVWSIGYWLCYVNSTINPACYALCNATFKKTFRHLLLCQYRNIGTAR
# Protocol: (§1) Functional Mobilization of Intracellular Calcium to Determine Muscarinic Receptor Activity:
# (§2) CHO cells expressing muscarinic receptors (M1 to M5) are grown as monolayers in tissue culture flasks at 37° C. in a humidified atmosphere containing 5% CO2 and passaged every 3-5 days. The growth media is Dulbecco's modified eagles medium (DMEM, Gibco Cat# 12430-054), containing 25 mM Hepes and supplemented with Fetal Bovine Serum (Hyclone, cat# SH30071.03), 0.1 mM of MEM non-essential amino acids (GIBCO, Cat# 11140-050), 1 mM MEM Sodium Pyruvate (GIBCO Cat# 11360-070) and 100 units/ml of Penicillin G and 100 μg/ml of Streptomycin (GIBCO Cat# 15140-122). The recombinant muscarinic receptor cell lines are grown under antibiotic pressure with media containing 25 μg/ml zeocin and 500 μg/ml G418 (M1-CHO), 4 μg/ml puromycin, 50 μg/ml zeocin and 2.5 μg/ml blasticidin (M2 and M4-CHO) or 50 μg/ml zeocin and 4 μg/ml puromycin (M3 and M5-CHO).
# (§3) Cells are harvested at 80-90% confluence using Versene (GIBCO Cat# 15040-066), collected by centrifugation and seeded 18-24 hrs prior to running the calcium assay at a density of 5,000 cells/well in back-walled, clear-bottomed 384-well plates (BD Biocoat, poly-D-lysine, Cat#356663). The day of the experiment, the cells are washed with a plate washer (Bioteck Instruments, ELX 405) using bath 1 buffer (140-mM NaCl, 4.5-mM KCl, 2-mM CaCl2, 1-mM MgCl2, 10-mM Hepes-Na, 10-mM Glucose, pH 7.4, with NaOH) containing 1 mM Probenecid. Next, the calcium dye Fluo-3 (25 μl/well of Fluo-3 AM at 4 μM, Molecular Probes F-1241, in Bath 1 buffer containing 1 mM Probenecid) is added to the 25 μl of Bath 1 remaining in each well after the plate wash and the dye is loaded at 37° C. in the tissue culture incubator for 60-90 min. The fluorescent dye is removed using the plate washer with Bath 1 containing 1 mM Probenecid, leaving 25 μl/well of this solution after the wash. Alternatively, cells can be loaded with the calcium indicator from Molecular Devices (Calcium 3 Assay Reagents, Cat # R7181) adding 5 μl of a 5× solution dye in Bath 1 containing 1 mM Probenecid (10 ml per dye flask cat# R7182 to generate a solution 20×) to 20 μl of the same buffer. After loading for 60 min, the experiment can be run without having to remove the dye.
# (§4) Compounds are prepared at a 2× fold concentration in a 96-well plate (round bottom, Costar Corning cat# 3656), by reconstituting the pre-spotted compounds in bath 1 containing 1 mM probenecid. The final concentration DMSO is 0.5%, and the amount of DMSO is normalized across the assay plate. To determine an agonist action of the compounds on muscarinic receptors, the reconstituted compounds are added (25 μl compound/well) to the cell assay plate (containing 25 μl/well) using the multi-channel robotic system of the FLIPR 3 Instrument (Molecular Devices, Sunnyvale, Calif.). To determine a functional inhibitory action of the compounds on muscarinic receptors, the reconstituted compounds are added (25 μl compound/well) to the assay plate and pre-incubated for 15 min prior to adding 25 μl of Carbachol at 3× the EC80 for each muscarinic subtype. Alternatively, the compounds can be co-applied simultaneously with the agonist. In both assay modes, the fluorescence is recorded for 60 sec (excitation wavelength is […] and emission wavelength 540 nm) using the FLIPR 3 instrument.
# (§5) The potency, efficacy and selectivity of the muscarinic compounds were evaluated by screening the compound activity across the whole family (M1 to M5 cells). Compounds were also screened for activity on other proteins such as other GPCRs and ion channels to determine selectivity on M4 receptors.
# M1 muscarinic receptor = target: T2, M1 muscarinic receptor (Homo sapiens, UniProt P11229); assay: Functional mobilization of intracellular calcium (FLIPR) in M1-CHO cells; format: cell-based; conditions: M1 receptor, calcium mobilization; for Emax: read-out: M1 Efficacy
# T2 construct: expressed in transfected cells; host or cells: CHO (M1-CHO)
# T2 sequence (P11229 1-460): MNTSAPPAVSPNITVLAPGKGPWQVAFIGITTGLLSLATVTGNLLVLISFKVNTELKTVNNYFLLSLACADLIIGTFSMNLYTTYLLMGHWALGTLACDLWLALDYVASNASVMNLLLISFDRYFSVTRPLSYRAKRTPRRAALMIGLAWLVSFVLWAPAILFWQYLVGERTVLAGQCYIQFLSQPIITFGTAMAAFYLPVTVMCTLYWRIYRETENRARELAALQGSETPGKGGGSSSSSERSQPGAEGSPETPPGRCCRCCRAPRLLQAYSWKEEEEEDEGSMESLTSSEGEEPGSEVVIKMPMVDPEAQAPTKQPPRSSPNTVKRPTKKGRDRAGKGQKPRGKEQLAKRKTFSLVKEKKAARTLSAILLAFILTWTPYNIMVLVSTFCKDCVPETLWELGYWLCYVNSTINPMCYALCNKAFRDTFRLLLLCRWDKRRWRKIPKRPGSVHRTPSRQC
# Protocol: as §1, §2, §3, §4, §5
Compound,M4 Activity (M4 muscarinic receptor),Emax (M4 muscarinic receptor),M1 Activity (M1 muscarinic receptor),Emax (M1 muscarinic receptor)
CCOC(=O)N1CCC(CN2CCC3(CC2)CN(C(C)=O)c2ccc(OC(F)(F)F)cc23)CC1 [compound 21],x (activity was measured to be greater than 1.0 μM),< 65%,xx (activity was measured to be between 0.1 μM and 1.0 μM),< 65%
CCOC(=O)N1CCC(N2CCC3(CC2)CN(C(=O)N2CCCC2)c2ccc(F)cc23)CC1 [compound 22],x (activity was measured to be greater than 1.0 μM),< 65%,xxx (activity was measured to be less than 0.1 μM),65 to 85%
Cc1ccc2c(c1)C1(CCN([C@@H]3C[C@@H]4CC[C@@H]3C4)CC1)CN2 [compound 23],x (activity was measured to be greater than 1.0 μM),< 65%,xx (activity was measured to be between 0.1 μM and 1.0 μM),< 65%
Cc1cc(C(=O)N2CC3(CCN(C4CC5CCC(C4)N5C(=O)OC(C)C)CC3)c3cc(F)ccc32)nn1C (centres unmarked) [compound 24],x (activity was measured to be greater than 1.0 μM),< 65%,xx (activity was measured to be between 0.1 μM and 1.0 μM),< 65%
COCCOC(=O)N1CCC(CN2CCC3(CC2)CN(C(C)=O)c2ccc(F)cc23)CC1 [compound 26],xx (activity was measured to be between 0.1 μM and 1.0 μM),< 65%,xxx (activity was measured to be less than 0.1 μM),65 to 85%
CCC1CCC(N2CCC3(CC2)CN(C(C)=O)c2ccc(F)cc23)CC1 (centres unmarked) [compound 27],xxx (activity was measured to be less than 0.1 μM),65 to 85%,xxx (activity was measured to be less than 0.1 μM),65 to 85%
CCOC(=O)N1C2CCC1CC(N1CCC3(CC1)CN(C(=O)O[C@@H]1CCOC1)c1ccc(F)cc13)C2 (some centres unmarked) [compound 28],xx (activity was measured to be between 0.1 μM and 1.0 μM),65 to 85%,xxx (activity was measured to be less than 0.1 μM),> 85%
CC(=O)N[C@H]1CC2(CCN(CC3CC4CCC3CC4)CC2)c2ccccc21 (some centres unmarked) [compound 29],xxx (activity was measured to be less than 0.1 μM),> 85%,xxx (activity was measured to be less than 0.1 μM),> 85%
CCOC(=O)N1CCC(N2CCC3(CC2)CN(C(=O)OCC(C)C)c2ccc(F)cc23)CC1 [compound 30],xxx (activity was measured to be less than 0.1 μM),> 85%,xxx (activity was measured to be less than 0.1 μM),> 85%
CCOC(=O)N1CCC(N2CCC3(CC2)C(=O)N(C)c2ccccc23)CC1 [compound 31],xxx (activity was measured to be less than 0.1 μM),65 to 85%,xxx (activity was measured to be less than 0.1 μM),> 85%
CN(C)C(=O)N1CC2(CCN(C3CC4CCC(C3)N4C(=O)OCCF)CC2)c2cc(F)ccc21 (centres unmarked) [compound 32],xxx (activity was measured to be less than 0.1 μM),65 to 85%,xxx (activity was measured to be less than 0.1 μM),> 85%
COCCOC(=O)N1C2CCC1CC(N1CCC3(CC1)CN(C(=O)OC)c1ccc(F)cc13)C2 (centres unmarked) [compound 33],xxx (activity was measured to be less than 0.1 μM),> 85%,xxx (activity was measured to be less than 0.1 μM),> 85%
CCOC(=O)N1CCC(CN2CCC3(CC2)CC(=O)Nc2ccccc23)CC1 [compound 34],xx (activity was measured to be between 0.1 μM and 1.0 μM),> 85%,xxx (activity was measured to be less than 0.1 μM),65 to 85%
CC(=O)N1CC2(CCN(C3CC4CCC(C4)C3)CC2)c2cc(F)ccc21 (centres unmarked) [compound 35],xx (activity was measured to be between 0.1 μM and 1.0 μM),> 85%,xxx (activity was measured to be less than 0.1 μM),> 85%
CCCOC(=O)N1CCC(CN2CCC3(CC2)C[C@H](NC(C)=O)c2ccccc23)CC1 [compound 36],xx (activity was measured to be between 0.1 μM and 1.0 μM),> 85%,xxx (activity was measured to be less than 0.1 μM),65 to 85%
Clc1ccc2c(c1)C1(CCN(C3CCOCC3)CC1)CN2 [compound 37],xx (activity was measured to be between 0.1 μM and 1.0 μM),> 85%,xxx (activity was measured to be less than 0.1 μM),65 to 85%
CCOC(=O)N1CCC(N2CCC3(CC2)CN(C(=O)OCCOC)c2ccc(F)cc23)CC1 [compound 38],xxx (activity was measured to be less than 0.1 μM),> 85%,xxx (activity was measured to be less than 0.1 μM),> 85%
CCOC(=O)N1CCC(N2CCC3(CC2)CN(C(=O)N(C)C)c2ccc(F)cc23)CC1 [compound 39],xx (activity was measured to be between 0.1 μM and 1.0 μM),> 85%,xxx (activity was measured to be less than 0.1 μM),65 to 85%
CCOC(=O)N1CCC(N2CCC3(CC2)CN(C(=O)c2ccc(OC)cc2)c2ccc(F)cc23)CC1 [compound 41],xxx (activity was measured to be less than 0.1 μM),> 85%,xxx (activity was measured to be less than 0.1 μM),> 85%
CCOC(=O)N1C2CCC1CC(N1CCC3(CC1)COc1ccc(F)cc13)C2 (centres unmarked) [compound 42],xx (activity was measured to be between 0.1 μM and 1.0 μM),> 85%,xxx (activity was measured to be less than 0.1 μM),> 85%
